Data from US20240139142A1, “METHOD FOR PREVENTING OR TREATING LIVER DISEASE” (priority 2022, published 2024).

How the values were obtained:
[1] = test system: Mahlavu liver hepatocellular carcinoma cell line subcutaneous tumor; assay: Mouse xenograft model, oral PCH1152; format: in vivo, nude mice; settings: 0.6 mg/mouse/day orally
Protocol: Seven days after subcutaneously injecting 1×10^6 Mahlavu liver hepatocellular carcinoma cell line into nude mice, PCH1152 (0.6 mg/mouse/day) began to be orally administered to the mice. After continuously administrating the drug orally for 45 days, the mice were sacrificed and their subcutaneous tumor were taken and analyzed.

[2] = test system: SNU-449 liver hepatocellular carcinoma cell line; assay: Western blot, apoptosis and ABCC2/Mcl-1/Twist expression; format: cell-based; settings: low concentration
[3] = test system: Antimycin A-induced ROS in LX-2 cells; assay: Removal of Antimycin A-induced ROS, DHE fluorescence; format: cell-based; settings: 2.5 μM PCH1152, 24 hours
Description: ROS was examined by DHE fluorescence, and the difference between each group was compared by Tukey's Multiple Comparison Test.

[4] = test system: Mahlavu liver hepatocellular carcinoma cell line; assay: Expression of ABCC2, Twist and Mcl-1 after treatment; format: cell-based; settings: 2.5 μM, 64 hours
Description: (§1) The process of trans-differentiating epithelial cells into motile mesenchymal cells is called epithelial-mesenchymal transition (EMT). EMT is indispensable in development, wound healing and stem cell behavior, and may induce fibrosis and carcinogenesis pathologically. In addition, EMT plays an important role in liver fibrosis, liver cirrhosis and liver hepatocellular carcinoma. […] Moreover, EMT may increase the anti-apoptosis effect, which will result in the development of drug resistance in cancer treatment, and induce the development of stemness of the cancer cells, as well as increase the number of cancer stem cells. The cancer stem cell is one of the important factors in the progression, recurrence, metastasis and drug resistance of the cancer. There is an evidence that in the samples of the liver hepatocellular carcinoma patients with poor prognosis, the overexpressions of Twist and Snail were observed. […] The results above represent that isothiocyanate structural modified compound of the present disclosure may prevent liver carcinogenesis and the growth, invasion, metastasis, progression and recurrence of liver hepatocellular carcinoma via inhibiting epithelial-mesenchymal transition, anti-apoptosis and/or inhibiting drug resistance.

[5] = test system: SNU-449 liver hepatocellular carcinoma cell line; assay: as above; format: cell-based; settings: 2.5 μM, 64 hours
Description: as §1

[6] = test system: hepatic lipid accumulation and fibrosis in HBV transgenic mouse liver; assay: Oil Red and Sirius Red staining of liver tissue; format: in vivo; settings: treated mice without liver hepatocellular carcinoma vs control group
[7] = test system: SNU-449 liver hepatocellular carcinoma cell line; assay: Western blot of apoptosis markers (cleaved caspase 8, cleaved PARP); format: cell-based; settings: 0.3 μM, 0, 24, 48 and 72 hours
Protocol: SNU-449 liver hepatocellular carcinoma cell line was treated by 0.3 μM isothiocyanate structural modified compounds P1130 and PCH1152, and natural isothiocyanate compound PEITC, and the control group was treated by DSMO. After extracting the proteins in the cells at different time points, such as 0, 24, 48 and 72 hours, analysis and comparison were performed by using western blot. […] The results represent that the two structural modified compounds described above effectively promoted the apoptosis of the liver hepatocellular carcinoma cells (FIG. 1).

[8] = test system: liver hepatocellular carcinoma cell line with Nexavar drug resistance; assay: Protein expression and apoptosis in drug-resistant cell line; format: cell-based
Description: WT: wild-type liver hepatocellular carcinoma cell line. R: Nexavar-drug resistance-liver hepatocellular carcinoma cell line.
After treating liver hepatocellular carcinoma cell line with Nexavar drug resistance by PCH1130 or PCH1152, the expressions of molecules such as USP22, ABCC1, ABCC2 and Twist in liver hepatocellular carcinoma may be decreased, and the expressions of cleaved Caspase-8 and PARP may be increased, which induced the apoptosis of liver hepatocellular carcinoma cells.

[9] = test system: P62 and LC3B in HBV transgenic mouse liver tissue; assay: Autophagy markers in liver tissue, western blot; format: in vivo
Protocol: The liver tissues of the mice with or without liver hepatocellular carcinoma in the example 7 were analyzed by western blot (FIG. 8A), and quantitative analysis was performed via Image J software (FIG. 8B). P62 protein accumulated in the cells when the autophagy was forbidden, and it was degraded when the autophagy started-up. Therefore, P62 protein may be a biomarker of autophagy. […] Moreover, LC3B protein is the subunit of the microtubule-related protein, which has different protein isomers. After the autophagy being started, LC3B I isomer will be transformed into LC3B II isomer. […] The results above indicate that PCH1152 may enhance autophagy, i.e. may inhibit abnormal “anti-autophagy” effect, thereby preventing the development of liver hepatocellular carcinoma. **p<0.01; ***p<0.001; unpaired t-test.

[10] = test system: liver hepatocellular carcinoma cell line SNU-449; assay: MTS assay cell growth, selectivity test; format: cell-based
[11] = test system: liver hepatocellular carcinoma cell line Mahlavu; assay: MTS analysis, growth inhibition (GI50); format: cell-based; settings: read-out: GI50, Mahlavu liver hepatocellular carcinoma cell line
[12] = format: physicochemical; settings: after 16 days
[13] = test system: mouse xenograft model of liver hepatocellular carcinoma; assay: Safety test, median lethal dose (LD50), intravenous injection; format: in vivo
Protocol: (§2) The mouse xenograft model of liver hepatocellular carcinoma was administered with different concentrations of PCH1152 or P1130 via intravenous injection, and the median lethal dose (LD50) was calculated by the number of death and dosage.

[14] = as above; format: in vivo; settings: in vivo, mouse
Protocol: as §2

[15] = test system: human normal liver cell line THLE-2; assay: Western blot, apoptosis and ABCC2/Mcl-1/Twist expression; format: cell-based; settings: low concentration
[16] = test system: Hepatitis B virus-induced ROS in Huh-7 cells; assay: Removal of HBV-induced ROS, DHE fluorescence; format: cell-based, human; settings: Huh-7 transfected with pGEM C12, 5 μM PCH1152, 10 μM NAC
Protocol: To examine the effect of PCH1152, NAC or the combination thereof on removing HBV-induced ROS, the Huh-7 cells were remained untreated, or treated with 5 μM PCH1152, 10 μM NAC or 5 μM PCH 1152 plus 10 μM NAC. The ROS was examined by DHE fluorescence, and the difference between each group was compared by Tukey's Multiple Comparison Test.

[17] = test system: human normal liver cell line THLE-2; assay: MTS assay cell growth, selectivity test; format: cell-based
Description: Preferable small molecule anticancer drugs must have higher selectivity to cancer cells, thereby reducing the toxicity and side effects in the normal cells and the dosage being taken. The selectivity of isothiocyanate structural modified compound of the present disclosure to liver hepatocellular carcinoma cells was examined by using human normal liver cell line THLE-2 and liver hepatocellular carcinoma cell line SNU-449. After treating liver hepatocellular carcinoma cell line and normal liver cell line by isothiocyanate structural modified compounds P1130 or PCH1152, the cell growth was evaluated by MTS assay.

[18] = test system: liver tumor in Hepatitis B virus (HBV) transgenic mouse; format: in vivo
Protocol: To examine the incidence rate of mouse liver tumor under long-term PCH1152 administration, PCH1152 was added into the drinking water of the mice when the mice were three-month-old, and the drinking water was replaced every 7 to 14 days. The termination of the experiment was set at 19 months, and the blood of the mice started to be collected every 2 to 3 months when the mice were 9-month-old, and the ALT values of the serum were measured. When the ALT of the serum were higher than 150 U/L twice in a row, the mice were sacrificed and the developments of the liver tumors thereof were observed.

[19] = test system: liver hepatocellular carcinoma cell line SNU-449; assay: MTS analysis, growth inhibition (GI50); format: cell-based
[20] = long-term treatment in drinking water

SMILES: Oc1ccc(CCN=C=S)cc1 [PCH1152]
- death of mice during the experiment ([1]; 45 days): No mouse dead
- effect on daily food intake ([1]; 45 days): did not have any significant effect
- effect on mouse weight ([1]; 45 days): did not have any significant effect
- value of ALT in the mouse ([1]; 45 days): decrease
- subcutaneous tumor volume ([1]; 45 days, vs control group): significantly smaller
- expressions of ABCC1, USP22 and Mcl-1 in subcutaneous tumor ([1]; western blot): significant lower
- apoptosis of liver hepatocellular carcinoma cell line [2]: promote apoptosis
- expressions of ABCC2, Mcl-1 and Twist [2]: inhibit the expressions
- Antimycin A-induced ROS increasement [3]: significantly reduce
- expressions of ABCC2, Twist and Mcl-1 [4]: inhibition
- expressions of ABCC2, Twist and Mcl-1 [5]: inhibition
- region of the lipid accumulation in liver tissue ([6]; Oil Red): reduced significantly
- region of fibrosis in liver tissue ([6]; Sirius Red): reduced significantly
- expression levels of cleaved caspase 8 and cleaved PARP [7]: significantly increased
- effect on drug resistance in liver hepatocellular carcinoma [8]: reversing the drug resistance
- expressions of USP22, ABCC1, ABCC2 and Twist [8]: decreased
- expressions of cleaved Caspase-8 and PARP [8]: increased
- effect on autophagy ([9]; liver tissue): significantly enhance autophagy
- P62 protein in liver tissue (ratio of P62 and Hsc70) ([9]; treated mouse without carcinoma vs mouse developing carcinoma, western blot): significantly lower
- ratio of LC3B II and LC3B I ([9]; vs control group, western blot): higher
- cell viability of liver hepatocellular carcinoma cell line ([10]; MTS assay, SNU-449): substantially decreased
- selectivity between liver hepatocellular carcinoma cell and normal liver cell ([10]; SNU-449 vs THLE-2, MTS assay): better cell growth inhibition selectivity
- GI50 [11]: 1.54 µM
- structural stability in the drinking water of the mice [12]: higher than 98%
- toxicity relative to existing anticancer drug, e.g. Taxotere [13]: comparable
- LD50 [14]: 30 to 100 mg/kg
- apoptosis promotion and inhibition of ABCC2, Mcl-1, Twist in human normal liver cell line [15]: no such effect
- HBV-induced ROS increasement [16]: significantly reduce
- effect on cell viability of human normal liver cell line [17]: not significant
- reduction of the incidence rate of liver tumor ([18]; compared to control group): more than 30%
- age at which serum ALT increased to over 150 U/L in 50% of the mice ([18]; control group 19.5-month old): 21 month old
- volume of the liver tumor ([18]; long-term treatment): significantly decrease
- weight of the liver tumor ([18]; long-term treatment): significantly decrease
- impact on daily food intake [18, 20]: did not have any significant impact
- impact on daily water intake [18, 20]: did not have any significant impact
- impact on weight [18, 20]: did not have any significant impact
- GI50 ([19]; Homo sapiens, SNU-449, read-out: GI50, SNU-449 liver hepatocellular carcinoma cell line): 0.89 µM
- increase of the ability of inhibiting the growth of the liver hepatocellular carcinoma cell line ([19]; compared to natural isothiocyanate compounds BITC or PEITC): 12 times
